Source: US11638763B2, “Nanoallergens and uses thereof” (University of Notre Dame du Lac, priority 2015, dated 2023)
Entries after “also recorded” stand apart in the source; their conditions may differ. One block for each molecule: values may come before it. Square brackets hold non-standard residues; d marks the D form. Ends that are not written are not given here. Hyp = O=C(O)[C@@H]1C[C@@H](O)CN1

Key:
RBL-2H3 cells = experiment: Degranulation assay, RBL-2H3 cells primed with monoclonal IgE; assay type: cell-based, rat; details: valency of 18, FIG. 19
Procedure: Cell Culture. RBL-2H3 cells were cultured in Minimum Essential Media (Gibco) with 10% fetal bovine serum (Gemini BioProducts) as previously described.^25
Degranulation Assays. RBL degranulation assays were performed as previously described, expect using nanoallergens as the allergen.^23 Additionally, RBL cells were incubated with 1 μg/mL of total IgE overnight prior to nanoallergen incubation using 75% IgE^cyclinA as an orthogonal IgE (i.e. an IgE specific to a molecule, cyclinA, which is not used in this study) to simulate physiological conditions for all degranulation assays.^21

IgE^dansyl [1] = experiment: Fluorescence quenching titration of dansyl conjugates; assay type: binding; details: monovalent affinity of hapten-amino acid conjugate
Procedure: Fluorescence Quenching Assay. The binding constants for dansyl conjugates were determined as previously described.^27 Briefly, Dansyl conjugates were titrated into wells containing 15 nM IgE^dansyl and then the flourscence read at various concentration points (Ex=280 nm, Em=335).

IgE^dansyl [2] = experiment: Fluorescence quenching binding of HBI molecules to IgE^dansyl
Procedure: Fluorescence Quenching. In order to determine binding of HBI molecules to respective antibodies, we observed the quenching of tryptophan resides using a method previously described. Briefly, either IgE^dansyl or IgG^Penicillin was diluted into a non-binding 96-well dish at 40 nM in PBS. Then, HBI molecules which contained either a dansyl or DNP group were titrated into well and fluorescence (Ex. 280 nm, Em. 335) was observed using a SpectraMax M2 spectrophotometer. PBS and free tryptamine diluted to similar initial fluorescence values were used as controls to account for HBI fluorescence and non-specific quenching respectively.

RBL-SX38 cells = experiment: Degranulation assay, RBL-SX38 cells primed with peanut allergy patient sera; assay type: cell-based, rat; details: for degranulation response: 2% epitope-lipid nanoallergens, single patient serum (FIG. 4); for Immuno-reactivity: epitope-lipid loaded in nanoallergens, patient sera; for effect on Ara h 2 triggered degranulation: 100 μM free epitope 2, FIG. 13
Procedure: Cell Culture. RBL-SX38 cells were a generous gift from Dr. Jean-Pierre Kinet from Harvard University. RBL-SX38 cells were cultured in Minimum Essential Media (Gibco) with 10% fetal bovine serum (Gemini BioProducts, Sacramento Calif.) and 1.2 mg/mL of G418 salt (Sigma) as previously described.
Degranulation Assays. Degranulation assays were performed as previously described using nanoallergens as the allergen. RBL cells were plated into 96-well dishes for 24 hrs and then incubated with 10% of human sera in cell culture media for an additional 24 hrs prior to the degranulation assay.
Using the mast-like rat basophil leukemia SX38 (RBL) cell line that has been transfected to express the human FcεRI on their surface, applicants can use peanut reactive patient sera in applicants' cellular degranulation assays (FIG. 8). The RBL cells become sensitized when IgEs from the patient sera (including those reactive to peanuts) tightly bind to the high affinity FcεRI. After sensitization, applicants added varying concentrations of either Ara h 2 or nanoallergens with 2% of epitope 2 lipid loaded into the liposome.

[3] = test system: Bruton's tyrosine kinase (BTK); experiment: Western blot of BTK phosphorylation in stimulated RBL-SX38 cells; assay type: cell-based, rat; details: FIG. 3
Procedure: Western Blot. Stimulated RBL cells were analyzed for intracellular activity with a Western blotting technique previously described. RBL-SX38 cells were plated at approximately 0.5×10^6 cells per mL into a 3 mL dish for 24 hours. Cells were then incubated in 10% patient serum in cell culture media for 24 hours. Cells were then washed with Tyrodes buffer and incubated with Tyrodes from 30 minutes at 37° C. Ara h 2 or nanoallergens were then added at varying concentrations and incubated at 37° C. for 3 minutes. Cells were washed with ice cold PBS, then incubated in RIPA with phosphatase inhibitor lysis buffer, scrapped and sonicated for a minute intervals over the course of 30 minutes on ice. Lysates were then spun down at 15000 RPM for 10 minutes and their protein concentration determined by Bradford Assay. Laemmli buffer and PBS were added to all lysates so that their protein concentration was 0.5 mg/mL or would be 0.5 mg/mL prior to immunoprecipitation. Samples were boiled for 5 minutes; centrifuged and 20 uL of each was added to a 10% SDS-PAGE gel. Samples ran on the gel for 1 hr, were transferred to nitrocellulose paper for 1.5 hrs, and blocked with 5% BSA in TBS-T for 1 hr. […] The membranes were washed, and incubated in with Clarity™ Western ECL Blotting Substrate (Bio-Rad) for 5 minutes. Bands were exposed onto Kodak Chemiluminescence Film for times ranging from 1-30 minutes.

patient IgEs = experiment: ELISA binding assay with patient sera; parameters: species or system human; details: for EC50: patient serum 0, plate coated with anti-IgE IgG
Procedure: ELISA Assay. A high binding 96-well plate was incubated with anti-Human IgE in Carbonate-Bicarbonate buffer (Sigma) at a concentration of 3 nM for 16 hours at 4° C. Plate was washed with washing buffer (PBS with 0.5% tween 20) and then blocked with blocking buffer (5% BSA in PBS with 0.1% tween 20) for 1 hr at room temperature. Plate was washed with automatic plate washer (AquaMax 2000), then varying concentrations of either Ara h 2-Biotin (Indoors Biotechnologies) or FITC-peptide 2 conjugate in blocking buffer for 1 hour. Plate was washed again and then either streptavidin-HRP (1:5000 dilution) or anti-FITC HRP IgG (1:5000 dilution) was added in blocking buffer. After washing, Amplex Red substrate was added (Invitrogen) and plate fluorescence read at 5 minute intervals according to manufacturers instructions.

[4] = various sera from highly allergic individuals; cited from earlier work
[5] = all four patient sera, 2% loaded, FIG. 6

EC50 (RBL-2H3 cells): 0.026 ± 0.009 µM
Molecule: DNP-BSA: DNP groups covalently bonded to bovine serum albumin, valency of 18, used as a control

Kd (IgE^dansyl [1]): 0.147 µM
Kd (IgE^dansyl [2]): 0.0299 ± 0.01 µM
Molecule: Dansyl

Molecule: Epitope-Lipid 1: Ara h 2 epitope NLRPCEQHLMQKIQRD (38-53) lipid conjugate, tested loaded at 2% in nanoallergens (also: lipid conjugate, site not given here)
degranulation response (RBL-SX38 cells): little or no degranulation response
degranulation response in patient sera (RBL-SX38 cells; Serum 1, 2 and 3, in contrast to Serum 0): moderate responses
Immuno-reactivity (RBL-SX38 cells): None

Molecule: Epitope-Lipid 2: Ara h 2 epitope ERDPYSP^OHSQDPYSP^OHS (79-91) lipid conjugate, tested loaded at 2% in nanoallergens (ERDPYS[Hyp]SQDPYS[Hyp]S; also: lipid conjugate, site not given here)
fold lower concentration than Ara h 2 to stimulate degranulation (RBL-SX38 cells; 2% epitope 2 lipid, FIG. 2C): approximately 10 fold
degranulation response (RBL-SX38 cells): simulate degranulation
effect of proline hydroxylations on degranulation response (RBL-SX38 cells; 2% loaded nanoallergens, with and without hydroxylations, FIG. 10): increase in response when proline hydroxylations are present
Immuno-reactivity (RBL-SX38 cells): High
fold lower concentration than the other immune-reactive epitope nanoallergens to stimulate degranulation (RBL-SX38 cells; single patient serum, FIG. 4): approximately 100 fold
BTK phosphorylation [3]: increase in phosphorylation BTK

binding through ELISA (patient IgEs): did not demonstrate any binding
Molecule: Epitope-Lipid 3: Ara h 2 epitope SDRLQGRQQ (114-123) lipid conjugate, tested loaded at 2% in nanoallergens (also: lipid conjugate, site not given here)
degranulation response (RBL-SX38 cells; listed as epitope 3): simulate degranulation; also recorded: could trigger degranulation
Immuno-reactivity (RBL-SX38 cells): Mild

Molecule: Epitope-Lipid 4: Ara h 2 epitope RRCQSQLER (28-35) lipid conjugate, tested loaded at 2% in nanoallergens (also: lipid conjugate, site not given here)
degranulation response (RBL-SX38 cells; listed as epitope 4): simulate degranulation; also recorded: little or no degranulation response
degranulation response in patient sera (RBL-SX38 cells; [5]): no response
Immuno-reactivity (RBL-SX38 cells): None

binding through ELISA (patient IgEs): did not demonstrate any binding
Molecule: Epitope-Lipid 5: Ara h 2 epitope HASARQQWEL (15-24) lipid conjugate, tested loaded at 2% in nanoallergens (also: lipid conjugate, site not given here)
degranulation response (RBL-SX38 cells; listed as epitope 5): simulate degranulation; also recorded: could trigger degranulation
degranulation response in patient sera (RBL-SX38 cells; [5]): moderate responses
Immuno-reactivity (RBL-SX38 cells): Mild

Molecule: Epitope-Lipid 6: Ara h 2 epitope RQQEQQFKRELRNLPQQ (120-136) lipid conjugate, tested loaded at 2% in nanoallergens (also: lipid conjugate, site not given here)
degranulation response (RBL-SX38 cells): simulate degranulation
degranulation response in patient sera (RBL-SX38 cells; [5]): moderate responses
Immuno-reactivity (RBL-SX38 cells): Mild

Molecule: Epitope-Lipid 7: Ara h 2 epitope PQRCDLE (142-148) lipid conjugate, tested loaded at 2% in nanoallergens (also: lipid conjugate, site not given here)
degranulation response (RBL-SX38 cells): simulate degranulation
degranulation response in patient sera (RBL-SX38 cells; [5]): low responses
Immuno-reactivity (RBL-SX38 cells): Low

Molecule: Epitope-Lipid 8: Ara h 2 epitope CDLEVESGGRDRY (145-157) lipid conjugate, tested loaded at 2% in nanoallergens (also: lipid conjugate, site not given here)
degranulation response (RBL-SX38 cells): little or no degranulation response
degranulation response in patient sera (RBL-SX38 cells; all four patient sera, 2% loaded, FIG. 6, listed as epitope 8): no response; also recorded: did not demonstrate any degranulation
Immuno-reactivity (RBL-SX38 cells): None

EC50 (patient IgEs): 0.465 ± 0.2 µM
Molecule: Pep2: FITC-tagged epitope 2 peptide used in ELISA (ERDPYS[Hyp]SQDPYS[Hyp]S; also: FITC-tagged, site not given here)

Molecule: free epitope 2 peptide: free Ara h 2 epitope 2 peptide, used at 100 μM (ERDPYS[Hyp]SQDPYS[Hyp]S)
effect on Ara h 2 triggered degranulation (RBL-SX38 cells): only a very small decrease in degranulation response
effect on Ara h 2 triggered degranulation (RBL-SX38 cells; listed as free epitope peptide 2): did not prevent Ara h 2 protein from triggering degranulation
effect on nanoallergen degranulation response (RBL-SX38 cells; 100 μM free peptide 2, FIG. 9): can be prevented

EC50 (patient IgEs): 0.04 ± 0.027 µM
B1: Ara h2: major peanut allergen, 17.5 kDa 2 S albumin seed storage protein (protein)
chain: RQQWELQGDRRCQSQLERANLRPCEQHLMQKIQRDEDSYGRDPYSPSQDPYSPSQDPDRRDPYSPSPYDRRGAGSSQHQERCCNELNEFENNQRCMCEALQQIMENQSDRLQGRQQEQQFKRELRNLPQQCGLRAPQRCDLEVESGGRDRY
EC50 values in cellular studies [4]: low picomolar range
